The subject of series [1] is Giardia lamblia. The note with it: humans; background, The New York Times, June 10, 1980; cited from earlier work.
The conditions of series [2]: cited from earlier work.
For another series, the system named is T. vaginalis. The experiment in a line: Anti-T. vaginalis activity. The class given is cell-based, Trichomonas vaginalis. As to conditions: procedure of Example 2; refers to Table 1.
Series [3] concerns Giardia lamblia. The experiment in a line: In vitro anti-Giardia lamblia activity (viable organisms counted by hemacytometer, 50% inhibition of growth). The class given is cell-based. As to conditions: Giardia duodenalis, read-out: Anti-G. lamblia ED50. As for the experimental part:
About 1.0-2.0 ml of a nutrient medium, for example, the modified Diamond's TPS medium at pH 7.05, together with about 10% by volume of heat-inactiviated serum and about 1% by volume of antibiotic-antimycotic solution is placed in each well of a multiwell plate. To this mixture, an aliquot of a suspension of G. lamblia cells containing about 10^6 organisms is added. Subsequently, each well is inoculated with a known concentration of one of the active compounds. The multiwell plate containing the individual culture samples is incubated under anaerobic conditions at about 37° C. for about 16-24 hrs. The number of viable cells remaining in each well are then counted, such as with a hemacytometer. […]
In each well of a multiwell plate is placed 1.4 ml of media mix containing Diamond's TPS medium (see Table 2) at pH 7.05, 10% by volume of heat-inactivated fetal bovine serum, and 1% by volume of an antibiotic-antimycotic solution (see Table 3). […] The cells are resuspended in a small volume of the Diamond's medium, counted, and each well inoculated with approximately 10^6 organisms. […] After 24 hours of incubation each well is mixed and counted for viable organisms using a hemacytometer. The percentage of survival is determined by comparing the treated wells to controls treated with dimethylsulfoxide. […]

Another series relates to T. foetus. Nature of the series: In vitro anti-Trichomonas foetus activity (50% inhibition of growth). The class given is cell-based, Trichomonas foetus KV1. The note with it: for IC50: Tritrichomonas foetus, read-out: Anti-T. foetus ED50. How it is done: The activity of these compounds against Giardia lamblia and Trichomonas foetus are shown by the following test:
About 1.0-2.0 ml of a nutrient medium, for example, the modified Diamond's TPS medium at pH 7.05, together with about 10% by volume of heat-inactiviated serum and about 1% by volume of antibiotic-antimycotic solution is placed in each well of a multiwell plate. To this mixture, an aliquot of a suspension of G. lamblia cells containing about 10^6 organisms is added. Subsequently, each well is inoculated with a known concentration of one of the active compounds. The multiwell plate containing the individual culture samples is incubated under anaerobic conditions at about 37° C. for about 16-24 hrs. The number of viable cells remaining in each well are then counted, such as with a hemacytometer. The percentage of survival is determined by comparison with controls inoculated with DMSO (dimethylsulfoxide) and the effective concentration (in parts per million) for 50% inhibition of growth (ED50) is determined. It is established that the lower the number of the value of ED50, the higher the activity of the active compound.
In each well of a multiwell plate is placed 1.4 ml of media mix containing Diamond's TPS medium (see Table 2) at pH 7.05, 10% by volume of heat-inactivated fetal bovine serum, and 1% by volume of an antibiotic-antimycotic solution (see Table 3). A suspension of Giardia lamblia is centrifuged at 2,500 xg. for 6 minutes. The cells are resuspended in a small volume of the Diamond's medium, counted, and each well inoculated with approximately 10^6 organisms. A stock solution of fluorouracil is made at a concentration of 150 μg/ml. The wells are then inoculated with various concentrations of the drug. The plates are incubated for 24 hours at 37° C. in an anaerobic Gas Pak jar. After 24 hours of incubation each well is mixed and counted for viable organisms using a hemacytometer. The percentage of survival is determined by comparing the treated wells to controls treated with dimethylsulfoxide. […]

Converted amounts (≈) assume the structure as drawn. Like-named read-outs stand apart in the source and are kept apart here.

As to `CCN(CC)CCCC(C)Nc1c2ccc(Cl)cc2nc2ccc(OC)cc12` (stereo not drawn) [Atabrine], the “treatment of giardiasis infection” value in the series with Giardia lamblia [1] is given as “successfully treated”. The adverse side effects result in series [2] (in vivo) was “known to cause adverse side effects”.

Consider `Cc1ncc([N+](=O)[O-])n1CCO` [Flagyl, metronidazole], for which, in the series with Giardia lamblia [1], the “treatment of giardiasis infection” value is “successfully treated”. The adverse side effects entry in series [2] (in vivo) was “known to cause adverse side effects”.

As for `[O-][n+]1ccnc(O)c1` [emimycin, 2-hydroxypyrazine-4-oxide], the “anti-T. vaginalis activity (in words)” value in the series with T. vaginalis is “active anti-T. vaginalis agents”. Moreover, the IC50 with Giardia lamblia [3] (in vitro, effective concentration for 50% inhibition of growth, about 10^6 organisms per well, 37° C., anaerobic, 16-24 hrs (Example 1: 24 hours), controls with DMSO) was 22 µg/mL (≈ 196 µM); in the series with T. foetus (in vitro, 50% inhibition of growth, T. foetus KV1 in Example 2, 37° C., 24 hours) it was < 1 µg/mL.

On to `O=c1[nH]cc(F)c(=O)[nH]1` [fluorouracil, 5-fluoro-2,4-(1H,3H)pyrimidenedione], for which the figures for the IC50 in the series with Giardia lamblia [3] and with T. foetus (24 h) were 100 µg/mL (≈ 769 µM) and 3 µg/mL (≈ 23.1 µM), respectively. Moreover, the “anti-T. foetus activity (in words)” value in the series with T. foetus (in vitro, T. foetus KV1, 37° C., 24 hours) is given as “effective anti-T. foetus agent”.

Turning to `O=C1OCCN1N=Cc1ccc([N+](=O)[O-])o1` [furazolidione], in the series with Giardia lamblia [1], the “treatment of giardiasis infection” value is listed as “successfully treated”. Also, in series [2] (humans, background, The New York Times, June 10, 1980), the adverse side effects result was “known to cause adverse side effects”.

The values above are taken from patent US4424220A, “Treatment of giardiasis and trichomoniasis” (priority 1982, dated 1984).
